Measurements published in patent US9980943B2, “Methods of treating muscular dystrophy” (BOARD OF REGENTS OF THE NEVADA SYSTEM OF HIGHER EDUCATION, …, priority 2013, dated 2018).
Where two headings read alike, the source gives them in different places.

Tests used:
[1] = system: α7 integrin (LacZ reporter in α7+/LacZ myotubes); assay: Myotube α7 integrin FDG assay (Burkin assay in myotubes, 96-well); format: cell-based, mouse; conditions: myotubes; for EC50: nonlinear regression of dose-response curves, read-out: EC50 α7+/LacZ MT
[2] = system: α7 integrin (LacZ reporter in α7LacZ+/− myoblasts); assay: qHTS of the LOPAC library and MLSMR (online screen, α7LacZ+/− myoblasts); conditions: for activation at 0.307 µM / activation at 1.53 µM / activation at 7.66 µM / activation at 38.3 µM / Emax / EC50: Mus musculus, Myoblast; for activation at 0.307 µM: read-out: Activity at 0.307 uM [%] **; for activation at 1.53 µM: read-out: Activity at 1.530 uM [%] **; for activation at 7.66 µM: read-out: Activity at 7.660 uM [%] **; for activation at 38.3 µM: read-out: Activity at 38.30uM [%] **; for EC50: read-out: Fit LogAC50 (converted)
[3] = 48 h, read-out: Fit Infinite Activity [%]

| Compound | MT FOLD INCREASE ([1]; maximum response) | EC50 [1] | Online Screen Fold-change ([2]; MLSMR qHTS, myoblasts) | Online Screen Score ([2]; MLSMR qHTS, myoblasts) | activation at 0.307 µM ([2]; 48 h) | activation at 1.53 µM ([2]; 48 h) | activation at 7.66 µM ([2]; 48 h) | activation at 38.3 µM ([2]; 48 h) | Emax [2, 3] | EC50 [2] | Emax ([2]; read-out: Max Response [%]) | Score [2] | Score ([2]; Table 8 Compound data) |
| --- | --- | --- | --- | --- | --- | --- | --- | --- | --- | --- | --- | --- | --- |
| CC1CCCCN1c1ncnc(N)c1[N+](=O)[O-] (stereo not drawn) [MLS000683234] | 1.7 fold | 27 µM | 2.6 | 46 |  |  |  |  |  |  |  |  |  |
| CN(C)c1ccnc2sc(C(N)=O)c(N)c12 [MLS000532969] |  | 2.2 µM |  | 44 |  |  |  |  |  |  |  |  |  |
| CC(C)(CC(=O)O)CC(=O)N1CCCN(c2nccc(C(F)(F)F)n2)CC1 [Compound 56] |  |  |  |  | 24% | 38.1% | 86.7% | 108% | 111% | 3.98 µM | 108% |  |  |
| Cc1c(C(=O)O)cccc1-n1c(C)cc(/C=N/Nc2ccc([N+](=O)[O-])cn2)c1C [Compound 9] |  |  |  |  | -24.5% | 6.29% | 68.1% | 88.7% | 92.2% | 2.82 µM | 88.7% | 85 |  |
| COc1ccccc1-c1coc2c3c(ccc2c1=O)OC1CCCCN1C3 (stereo not drawn) [Compound 3] |  |  |  |  | -34.2% | 9.57% | 154% | 159% | 158% | 2.24 µM |  |  |  |
| CCOC(=O)C1CCCN(C(=O)CNS(=O)(=O)c2ccc(Br)s2)C1 (stereo not drawn) [Compound 33] |  |  |  |  | -41.8% | -14.3% | 17% | 31.1% | 33.2% | 2 µM |  |  |  |
| Cc1ccc(NC(=O)NCc2nc3ccccc3n2C)cc1 [Compound 77] |  |  |  |  | -33.5% | -19.7% | 54.7% | 85.1% | 87.1% | 4.47 µM | 85.1% |  |  |
| CCOc1ccc2ccccc2c1C1NC(=O)N(C)C(C)=C1C(=O)OCCOC (stereo not drawn) [Compound 76] |  |  |  |  | -5.81% | 5.65% | 55.1% | 97% | 106% | 6.31 µM | 97% |  |  |
| CCCOc1nc(SCCC)nc2c1cnn2-c1ccccc1 [Compound 178] |  |  |  |  | -21.2% | -11.3% | 18.9% | 64.3% | 85.3% |  | 64.3% |  |  |
| CN(C)/C(S)=N/c1cccc(C(F)(F)F)c1 [Compound 172] |  |  |  |  | 8.95% | 7.22% | 31.2% | 71.2% | 73.8% | 10 µM | 71.2% |  |  |
| Cc1ccc(NCc2nnc(SCC(=O)Nc3nnc(C)s3)n2C)cc1 [Compound 51] |  |  |  |  | -27.9% | -17.6% | 31.4% | 249% | 250% | 10 µM |  |  |  |
| COC(=O)c1ccccc1NC(=O)c1cc[n+]([O-])cc1 [Compound 100] |  |  |  |  | -24.5% | -4.99% | 30.1% | 56.3% | 64% | 3.98 µM | 56.3% |  |  |
| CC1(C)Cc2c(cnn2-c2cccc(F)c2)C(NC(=O)CCc2cnccn2)C1 (stereo not drawn) [Compound 154] |  |  |  |  | -36.1% | -14.4% | 17.9% | 38.9% | 47.5% |  | 38.9% |  |  |
| Cc1nc2c(cnn2-c2ccccc2)c(=O)n1/N=C/c1ccccc1 [Compound 171] |  |  |  |  | 10% | 10.2% | 28.1% | 68.4% | 69.5% | 10 µM | 68.4% |  |  |
| O=C(O)CCCNC(=O)CCn1nnc2ccccc2c1=O [Compound 174] |  |  |  |  | -21.7% | -16.7% | 13.6% | 74.2% | 83.7% |  | 74.2% |  |  |
| Cc1ccc(OCC(=O)N2CCN(S(=O)(=O)c3ccc4c(c3)OCCO4)CC2)c(C)c1 [Compound 27] |  |  |  |  | -26.2% | 3.31% | 51.6% | 53.8% | 55% | 2 µM |  |  |  |
| O=C(COC(=O)c1cc2ccccc2oc1=O)Nc1ccc(F)cc1F [Compound 60] |  |  |  |  | -11% | 4.45% | 78.3% | 115% | 116% | 4.47 µM | 115% |  |  |
| N#Cc1ccc(OCC(O)CS(=O)(=O)c2ccccc2)cc1 (stereo not drawn) [Compound 195] |  |  |  |  | -7.88% | -12% | 15.3% | 89.4% | 89.6% | 10 µM | 89.4% |  |  |
| CS(=O)(=O)Cc1cccc(C(=O)NN(c2ccccc2)c2ccccc2)c1 [Compound 102] |  |  |  |  | 10.3% | 11.3% | 24.3% | 159% | 160% | 12.6 µM | 159% |  |  |
| CCCS(=O)(=O)N1CCCC(C(=O)c2cccc(Cl)c2)C1 (stereo not drawn) [Compound 84] |  |  |  |  | -5.29% | 11% | 59.7% | 102% | 114% | 6.31 µM | 102% |  |  |
| CCCCN(CCCC)CCNC(=O)c1cn(C)c2ccc(S(=O)(=O)N(C)C3CCCCC3)cc2c1=O [Compound 157] |  |  |  |  | -0.706% | -3.27% | 17.7% | 67.5% | 68.2% | 10 µM | 67.5% |  | 42 |
| O=C1CCc2cc(S(=O)(=O)Nc3ccc(C(F)(F)F)cc3)cc3c2N1CC3 [Compound 138] |  |  |  |  | -26.1% | -19.1% | 23.6% | 85.8% | 108% |  | 85.8% |  |  |
| O=C(N/N=C/c1cn[nH]c1-c1ccc(F)cc1)c1ccncc1 [Compound 128] |  |  |  |  | 17.3% | 12.6% | 22.6% | 152% | 154% |  | 152% |  |  |
| COc1ccc(C(=O)ONC(=N)c2cccc(C)c2)cc1OC [Compound 78] |  |  |  |  | 10.1% | 15.5% | 69.8% | 148% | 163% | 10 µM | 148% |  |  |
| CCOc1ccccc1NC(=O)c1cccc2c1C(=O)N(C1CCCCC1)C2 [Compound 15] |  |  |  |  | -13.7% | 4.71% | 58% | 73.6% | 75.3% | 3.16 µM |  |  |  |
| CC(/C=C(\O)c1ccccc1)=N\c1ccc(Br)c(Cl)c1 [Compound 130] |  |  |  |  | 7.18% | 9.18% | 26.1% | 127% | 128% |  | 127% |  |  |
| CCOC(=O)/C(C(=O)c1ccccc1)=C(\N)NCCO [Compound 222] |  |  |  |  | 9.44% | 9.77% | 16.5% | 66.5% | 66.8% |  | 66.5% |  |  |
